Test results: ChEMBL document CHEMBL6096719, “Kidney Targeting Smart Antibiotic Discovery: Multimechanism Pleuromutilins for Pyelonephritis Therapy” (J Med Chem, 2025)
Active and inactive are the calls of the source. No cut-off for these calls is given here.

What was measured:
Mesomycoplasma hyorhinis = experiment: Anti-mycoplasma activity against Mycoplasma hyorhinis BTS-7 NCTC10130 assessed as inhibition of bacterial growth incubated for 3 to 5 days by broth microdilution method; assay type: functional; conditions: time 3-5 day
Escherichia coli = experiment: Antibiofilm activity against Escherichia coli ATCC25922 assessed as disruption of preformed biofilms at 0.5 ug/ml incubated for 24 hrs with preformed biofilms by crystal violet staining based analysis; assay type: functional; conditions: dose 0.5 µg/ml
Cell membrane = experiment: Disruption of cell membrane in Escherichia coli ATCC25922 assessed as decrease in intracellular pH at 0.125 ug/ml incubated for 30 mins by cFDA-SE probe based fluorescence analysis; conditions: dose 0.125 µg/ml
Staphylococcus aureus = experiment: Antibacterial activity against methicillin-resistant Staphylococcus aureus ATCC33591 infected in systemic intraperitoneal infection Kunming mouse model assessed as decrease in inflammation, neutrophil infiltration, alveolar structure destruction, leukocyte infiltration, interstitial thickening in lungs at 5 mg/kg, ip treated at 1 hr post-infection and measured after 7 days by Hematoxylin-Eosin staining based analysis; assay type: functional, organism-based; conditions: time 7.0 day
[1] = Toxicity against methicillin-resistant Staphylococcus aureus ATCC33591 infected in systemic intraperitoneal infection Kunming mouse model assessed as mild liver damage at 20 mg/kg, ip treated at 1 hr post-infection and measured after 7 days by Hematoxylin-Eosin staining based analysis; assay type: organism-based; conditions: in vivo, 168 h, time 7 day
[2] = Tmax in Sprague-Dawley rat at 5 mg/kg, iv; assay type: ADME, organism-based; conditions: in vivo
[3] = Half-life in Sprague-Dawley rat at 5 mg/kg, iv; assay type: ADME, organism-based; conditions: in vivo
[4] = Oral bioavailability in Sprague-Dawley rat at 10 mg/kg; assay type: ADME, organism-based; conditions: in vivo

Which MIC (Mesomycoplasma hyorhinis) does the source give for C=C[C@]1(C)C[C@@H](OC(=O)CSc2nc3cc[n+](Cc4ccc(C)cc4)cc3[nH]2)[C@]2(C)[C@H](C)CC[C@]3(CCC(=O)[C@H]32)[C@@H](C)[C@@H]1O.[Br-] here?
Its MIC is < 0.04 µg/mL.

What about the Activity (Escherichia coli) of the same molecule?
Its Activity is 88.55%.

And the Activity (Cell membrane)?
The Activity was “Active”.

What about the Activity (Staphylococcus aureus) of the same molecule?
Its Activity is “Active; Nearly Restoration Of Normal Histology Observed”.

And the Activity [1]?
The Activity was “Toxic”.

And the Tmax [2]?
Its Tmax is 1.8 min.

And the half-life [3]?
Its half-life is 70.2 min.

And the bioavailability [4]?
The bioavailability was 47.9%.
